# Measurements taken from US8703970B2, “Compounds having photochemically removable protecting groups based on an electrocyclic reaction between a chromophore attached via an anilide group to a benzothiophene ring” (Marquette University, priority 2012, dated 2014).
# Where two headings read alike, the source gives them in different places.
# Columns and labels:
# Format in all cases: physicochemical
# [1] = Product quantum yield determination for photochemical leaving group expulsion at 390 nm
# Procedure: (§1) For the ester ε=5600 M^−1 cm^−1, while the acid has ε=4200 M^−1 cm^−1. For preparative photolyses Pyrex-filtered light from a Hanovia medium pressure mercury lamp was used. A sunlamp was also effective at photolysing all of the compounds in the study. Quantum yields were determined at 390 nm using a monochromator for wavelength selection utilizing a high pressure mercury lamp as the light source.
# A semi-micro optical bench was used for quantum yield determinations, similar to the apparatus described by Zimmerman.^32 Light from a 200 W high-pressure mercury lamp was passed through an Oriel monochromator, which was set to 390 nm wavelengths. The light was collimated through a lens. A fraction of the light was diverted 90° by a beam splitter to a 10×3.6 cm side quartz cylindrical cell containing an actinometer. The photolysate was contained in a 10×1.8 cm quartz cylindrical cell of 25 mL volume. The concentrations of the reactants were 0.0018-0.0030 M. All quantum yields reported herein were the average of two or more independent runs. Behind the photolysate was mounted a quartz cylindrical cell containing 25 mL of actinometer. Light output was monitored by ferrioxalate actinometery using the splitting ratio technique.
# For 7 (LG^−=Cl^−), 8 (LG^−=Cl^−), and 10 (LG^−=Cl^−) 50 mL of water was added to the photolysate, and the diluted photolysate was extracted four times with 30 mL of CH2Cl2. The combined extracts were washed twice with 30 mL water, brine, and concentrated in vacuo. The residue was dissolved in d6-DMSO. DMF was added as a standard for NMR analyses (vide infra). However, for 7 (LG^−=Cl^−) the NMR solvent was CDCl3 and the NMR standard was DMSO.
# For 9 (LG^−=Cl^−, PhS^−, HS^−, PhCH2S^−) the photolysate was adjusted to pH 2 by addition of 3 N HCl. The resultant precipitate was collected by suction filtration and washed with 50 mL water. The precipitate was transferred to a flask, and any untransferred precipitate was dissolved in DMSO and combined with the transferred precipitate. The DMSO was evaporated to dryness under vacuum and DMSO-d6 was added along with DMF as a standard for NMR analysis.
# Products were analyzed by ^1H NMR spectroscopy using DMF or DMSO as the internal standard and conversions were 12-16%. At the concentrations used most of the incident light would have been absorbed near the front face of the photolysis cell, raising the concern that the photoproducts formed during the photolyses could competitively absorb the incident light, reducing the light absorbed by the reactants. This internal filter effect would depress the observed Φ values below the actual values. In the case of 8 (LG^−=Cl^−) the Φ was thus redetermined at an 18-fold lower concentration of 1.0×10^−4 M of reactant and found to be within experimental error of the value obtained at higher concentration at 14% conversions for duplicate runs. Due to the very low concentrations of the photoproduct 26 formed, it had to be quantified by absorption spectroscopy of the exposed photolysates without any workup. The product absorption at 432 nm was deconvoluted from the tailing absorption of reactant using Origin 8.6 software (OriginLab). After deconvolution, concentrations were obtained from a calibration curve constructed from known mixtures of reactant and product.
# Absorption spectra = conditions: aqueous dioxane or acetonitrile
# Procedure: as §1
# (§2) Photoproduct 26 was identified by ^1H NMR spectroscopy and elemental analysis. […] Regioisomer 28 would have shown only four vicinal couplings in the COSY spectrum. […] The compound was obtainable only as a powder, despite repeated attempts to obtain crystals for structure determination using X-ray diffraction.
# [2] = Preparative photolysis with Pyrex-filtered Hanovia medium pressure mercury lamp, products quantified by NMR; conditions: N2 saturated aqueous 100 mM phosphate buffer (pH 7) in CH3CN; NMR integration
# Procedure: as §1
# (§3) Similarly, preparative photolysis of […] acid 9 (LG^−=Cl^−) in N2 saturated 75% H2O in CH3CN containing 100 mM phosphate buffer (pH 7) gave the single regioisomeric photoproduct 27 in 98% yield by NMR integration, as above for 8 (LG^−=Cl^−). The regiospecificity was again established by 600 MHz ^1H NMR COSY. […] Photolysis of acid 9 (LG^−=PhS^−, HS^−, PhCH2S^−) under the same conditions as 8 (LG^−=Cl^−) also gave photoproduct 27 in 98-100% yields upon expulsion of these thiolate leaving groups. For acid 9 (LG^−=PhCH2S^−) the released benzyl thiol was quantified in photolyses of 4.5×10^−3 M solutions of 35% D2O in CD3CN containing phosphate buffer (as above) contained in NMR tubes. Yields were 96% thiol and 99% of 27 at 100% conversion of reactant by ^1H NMR spectroscopy. Very similar results were found when DMSO-d6 was the photolysis solvent.
# The regiospecific formation of 26 or 27 in the preparative photolyses of ester 8 or acids 9 requires the presence of the ester and carboxylic acid substituents attached to the C-6 position of the benzothiophene ring system of the reactants. In contrast, photolyses of the unsubstituted benzothiophene ring system 7 (LG^−=Cl^−) in 16% water containing 100 mM phosphate buffer in CH3CN gave both regioisomeric photoproducts 30 and 31 as a 42:58 mixture, respectively, in 100% yield according to 400 MHz ^1H NMR spectroscopy (Scheme 6).
# To determine whether a “heavy atom effect” promoted intersystem crossing of the singlet excited state to the triplet excited state, work focused upon the C-7 bromide of thioxanthone ester 10 (LG^−=Cl^−). Preparative photolysis of ester 10 in N2 saturated 19% H2O in CH3CN containing 100 mM phosphate buffer (pH 7), as above for ester 8 (LG^−=Cl^−), exclusively gave regioisomer 32 in 99% yield, and 33 was not observed by ^1H NMR spectroscopy of the photolysate (Scheme 7).
# A 0.010 M solution of 8 (LG^−=Cl^−) in N2 saturated 17% H2O in CH3CN containing 100 mM phosphate buffer at pH 7 was irradiated with a 450 W Hanovia medium pressure mercury lamp with a Pyrex filter for 90 min. The photoproduct was isolated by filtration. The photoproduct was washed with H2O and a small amount of CHCl3 and dried under vacuum. The product was a yellow powder, mp >300° C. […] A COSY spectrum in d6-DMSO was obtained (see Supporting Information).
# A 0.010 M solution of 13 (LG^−=Cl^−) in N2 saturated 75% H2O in CH3CN containing 100 mM phosphate buffer at pH 7 was irradiated with a 450 W Hanovia medium pressure mercury lamp with Pyrex filter for 90 min. The photolysate was acidified to pH 2 with conc. HCl to precipitate the photoproduct carboxylic acid 27. The photoproduct was obtained by filtration, washing with H2O, and drying under vacuum, as a yellow powder, mp >300° C.
# A 0.010 M solution of 7 (LG^−=Cl^−) in N2 saturated 17% H2O in CH3CN containing 100 mM phosphate buffer at pH 7 was irradiated with a 450 W Hanovia medium pressure mercury lamp with a Pyrex filter for 90 min. The photoproduct was isolated by filtration as a mixture of two isomers, 30, 31. The mixture of product isomers was dissolved in hot DMSO. Solid photoproduct isomer 31 was obtained upon cooling of the hot DMSO and filtration. Photoproduct isomer 31 was washed with water and methanol and dried under vacuum to obtain 31 as floppy powder, mp >300° C. Solid photoproduct isomer 30 was obtained upon addition of water to the above DMSO filtrate by filtration, after washing with water and methanol. The photoproduct isomer 30 was crystallized from CHCl3 to give a yellow crystalline solid, mp 271-273° C. […]
# [3] = Photolysis with 120 W sunlamp for 72 h; conditions: gives exclusively product 26 or 27
# Procedure: The photolyses of ester 8 (LG^−=Cl^−) and acids 9 (LG^−=Cl^−, PhS^−, HS^−, PhCH2S) were repeated with a 120 W sunlamp for 72 h under otherwise the same conditions described above for the Hanovia runs.
# [4] = Stern-Volmer quenching of the photoreaction by piperylene
# Description: In air-saturated solution quantum yields for ester 8 (LG^−=Cl^−) decreased to Φ=0.019. […] Furthermore, quenching by 9.2-37×10^−[…] piperylene as quencher Q gave a slope kqτ=7.03×10^4 M^−1 for a Stern-Volmer plot Φ°/Φ vs. [Q](data not shown). If it is assumed that kq=ca. 10^10 M^−1 s^−1, then τ would be ca. 7 μs.
# [5] = Solubility observations on photoproducts
# Procedure: as §2, §3
# A 0.010 M solution of 8 (LG^−=Cl^−) in N2 saturated 17% H2O in CH3CN containing 100 mM phosphate buffer at pH 7 was irradiated with a 450 W Hanovia medium pressure mercury lamp with a Pyrex filter for 90 min. […]
smiles,measurement,setting,value
"COC(=O)c1ccc2c(Cl)c(C(=O)N(C)c3ccc4sc5ccccc5c(=O)c4c3)sc2c1 [8 (LG^−=Cl^−), 3-chloro-2-[methyl-(9-oxo-9H-thiozanthen-2-yl)-carbamoyl]-benzo[b]thiophene-6-carboxylic acid methyl ester]",product quantum yield Φ,"[1]; 390 nm, N2 saturated 19% H2O in dioxane containing 100 mM buffer (1.8×10^−3 M for 8; similar conditions for 7), products quantified by NMR",0.039
same,quantum yield Φ for photoproduct 26,"[1]; 390 nm, reactant concentration 1.0×10^−4 M, photoproduct quantified by absorption spectroscopy",0.037
same,quantum yield Φ,[1]; air-saturated solution,0.019
same,"quantum yields for reaction (photorelease of leaving group), overall",[1]; depending on LG^− basicity or reactant concentration,0.037-0.039
same,ε at absorption maximum,Absorption spectra; 385 nm,5600 M⁻¹ cm⁻¹
same,absorption maximum,Absorption spectra,385 nm
same,chemical yield of leaving group expulsion / photoproduct formation in preparative photolysis,[2],nearly quantitative
same,leaving group expulsion with sunlamp,[3],essentially quantitatively
same,Stern-Volmer slope kqτ,"[4]; 9.2-37×10^−6 M piperylene as quencher, plot Φ°/Φ vs. [Q]",70300 M⁻¹
same,triplet excited state lifetime τ,[4]; assuming kq=ca. 10^10 M^−1 s^−1,ca. 7 μs
"COC(=O)c1ccc2c(c1)sc1c(=O)n(C)c3cc4c(=O)c5cc(Br)ccc5sc4cc3c12 [compound 32, 6-methylcarboxylate-[1]benzothiopheno[2,3-c]benzo[a]anthracene-10-bromo-4-methyl-4H-7-thia-4-aza-3,12-dione]",solubility,[5],low solubility
Cn1c(=O)c2sc3ccccc3c2c2cc3sc4ccccc4c(=O)c3cc21 [compound 31],solubility,"[5]; in DMSO-d6, 13C-NMR could not be obtained",low solubility
